Source: BindingDB's records for doi:10.1016/s0960-894x(99)00495-3 (Tokyo University of Pharmacy & Life Science, 1999)

Assay: Compound was evaluated for inhibition of PNP-catalyzed inosine […] in Cellulomonas sp

Nc1nc2c(ncn2CCCCC(F)(F)P(=O)(O)O)c(=O)[nH]1 [9-(5',5'-difluoro-5'-phosphonopentyl)guanine]
IC50: 540 nM

O=c1[nH]cnc2c1ncn2CC[C@@H]1C[C@H]1C(F)(F)P(=O)(O)O [(Difluoro-{(1R,2S)-2-[2-(6-oxo-1,6-dihydro-purin-9-yl)-ethyl]-cyclopropyl}-methyl)-phosphonic acid]
IC50: 70 nM

Nc1nc2c(ncn2CC[C@@H]2C[C@H]2C(F)(F)P(=O)(O)O)c(=O)[nH]1 [({(1R,2S)-2-[2-(2-Amino-6-oxo-1,6-dihydro-purin-9-yl)-ethyl]-cyclopropyl}-difluoro-methyl)-phosphonic acid]
IC50: 390 nM

O=c1[nH]cnc2c1ncn2C[C@@H]1COC[C@@H]1CC(F)(F)P(=O)(O)O [{1,1-Difluoro-2-[(3R,4R)-4-(6-oxo-1,6-dihydro-purin-9-ylmethyl)-tetrahydro-furan-3-yl]-ethyl}-phosphonic acid]
IC50: 35 nM

O=c1[nH]cnc2c1ncn2C[C@H]1COC[C@@H]1CC(F)(F)P(=O)(O)O [{1,1-Difluoro-2-[(3R,4S)-4-(6-oxo-1,6-dihydro-purin-9-ylmethyl)-tetrahydro-furan-3-yl]-ethyl}-phosphonic acid]
IC50: 37 nM
